Experimental data reported in patent US10329304B2, “Compounds and methods for inhibition of hedgehog signaling and phosphodiesterase” (Vanderbilt University, priority 2014, dated 2019).
“Also recorded” adds a separate entry of the source. Like-named read-outs stand apart in the source and are kept apart here.

Columns and labels:
[1] = Mouse echocardiography after IP injection; type: in vivo; conditions: for Heart rate: 5 mg/kg to 20 mg/kg IP
Description: As shown below (FIGS. 28 and 29), ionotropic effects are seen within 30 minutes of eggmanone administration to a mouse (20 mg/kg IP injection). […] Mechanistically compound EGM targets the hydrolase PDE4. In Human adult myocardium, PDE4 localizes strictly to the z-bands.

SmoM2-Light cells = assay: Cell viability of SmoM2-Light cells; type: cell-based
Description: Cancer cell lines were seeded in 96 well tissue culture plate at a low density (10,000 cells per well) and treated with varying concentrations of Eggmanone. After 72 hr incubation, CellTiter-Blue Cell Viability Assay (Promega, Madison, Wis.) was then performed according to manufacturer's protocol. Absorbance was then measured in a Modulus Microplate reader (Promega, Madison, Wis.) at 590 nm and compared to cells treated with DMSO.

Ptch1 transcription = assay: Sufu−/− mouse embryonic fibroblasts qRT-PCR; type: cell-based; conditions: Mus musculus, Fibroblast; read-out: Sufu Null (Ptc) % Inh., 10 μM
Gli2 trafficking = assay: Gli2 ciliary localization and nuclear fraction western blot in NIH3T3 cells; type: cell-based; conditions: SAG 20 nM; for Gli2 localization in the primary cilium: 5 μM; for SAG-induced nuclear accumulation of full-length Gli2: Egm 10 μM, FSK 30 μM
[2] = Lipophilic efficiency (LipE = pEC50 − cLogP) and cLogP
How it was run: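 pEC50 came from TM3-Gli-Luc Gli-responsive luciferase reporter cells stimulated with 20 nM SAG, with non-specific cytotoxicity monitored in parallel. LipE was calculated by subtracting cLogP from pEC50.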

consensus PDE4D sequence = consensus PDE4D sequence (Homo sapiens, UniProt Q08499); assay: PDE4D inhibition (consensus PDE4D sequence); type: biochemical
Chain of consensus PDE4D sequence (Q08499 whole entry): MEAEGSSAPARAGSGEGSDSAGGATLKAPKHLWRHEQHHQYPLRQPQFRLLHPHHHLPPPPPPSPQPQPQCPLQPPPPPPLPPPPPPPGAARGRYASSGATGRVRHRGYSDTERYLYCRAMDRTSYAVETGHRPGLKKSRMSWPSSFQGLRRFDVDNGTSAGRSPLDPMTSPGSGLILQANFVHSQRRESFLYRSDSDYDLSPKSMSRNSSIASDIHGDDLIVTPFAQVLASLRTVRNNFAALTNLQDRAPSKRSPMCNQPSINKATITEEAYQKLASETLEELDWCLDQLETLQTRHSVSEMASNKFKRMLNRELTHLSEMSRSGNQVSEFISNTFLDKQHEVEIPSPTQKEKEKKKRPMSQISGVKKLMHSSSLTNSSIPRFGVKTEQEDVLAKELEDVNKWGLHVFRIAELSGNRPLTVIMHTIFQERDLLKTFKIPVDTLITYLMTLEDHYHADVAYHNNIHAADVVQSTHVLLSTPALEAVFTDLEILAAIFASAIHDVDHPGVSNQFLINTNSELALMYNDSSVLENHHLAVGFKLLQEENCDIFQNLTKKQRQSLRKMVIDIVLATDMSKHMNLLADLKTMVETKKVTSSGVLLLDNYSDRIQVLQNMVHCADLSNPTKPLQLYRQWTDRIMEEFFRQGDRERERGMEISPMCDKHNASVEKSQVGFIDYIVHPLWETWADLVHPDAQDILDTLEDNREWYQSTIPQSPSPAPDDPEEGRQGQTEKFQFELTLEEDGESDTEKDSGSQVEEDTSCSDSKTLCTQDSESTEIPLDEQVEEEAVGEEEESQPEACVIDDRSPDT
Description: First, the contribution of PDE4 was revisited as a potential explanation for the observed mechanistic drift.

[3] = healthy wild type mice and mice with heart failure
[4] = Calculated as pEC50 - cLogP, Molinspiration Cheminformatics

In the case of `C=C(C)Cn1c(SCC(=O)c2cccs2)nc2sc3c(c2c1=O)CCCC3` [EGM, Eggmanone], the Heart rate [1] was “without increasing heart rate; also recorded: does not increase the heart rate”, the “End-diastolic left ventricular internal dimension (LVIDd)” value [1, 3] was “decreases end-diastolic left ventricular internal dimension (LVIDd)” and the “Fractional shortening (FS)” value [1, 3] was “increases fractional shortening (FS)”. The Side effects ([1]; mice) was “no significant side effects”, the “Time to return to baseline heart function” value ([1]; mice) was no more than 24 h and the “Viability of SmoM2 cells” value (SmoM2-Light cells; listed as Egm) was “rapid (within 24-hrs) decline in viability”. For the same compound, the inhibition at 10 µM (Ptch1 transcription) was 65.6%, the “Gli2 localization in the primary cilium” value (Gli2 trafficking) was “significantly increased Gli2 localization in the cilium” and the “Gli2 localization in the primary cilium” value (Gli2 trafficking; listed as Egm) was “significantly increased Gli2 localization in the cilia”. For the same compound, the “SAG-induced nuclear accumulation of full-length Gli2” value (“SAG-induced nuclear accumulation” for short) (Gli2 trafficking) was “abrogated” and the “SAG-induced nuclear accumulation” value (Gli2 trafficking; listed as Egm) was “abrogated”.

In the case of `C=C(C)Cn1c(SCC(=O)c2cccs2)nc2sc3c(c2c1=O)CCCC3` [Eggmanone, 3-(2-methylallyl)-2-((2-oxo-2-(thiophen-2-yl)ethyl)thio)-5,6,7,8-tetrahydrobenzo[4,5]thieno[2,3-d]pyrimidine-4(3H)-one], the Heart rate [1] was “without increasing heart rate”, the “Time to ionotropic effects” value ([1]; 20 mg/kg IP injection) was no more than 30 min and the “Fractional shortening (FS)” value [1, 3] was “increases fractional shortening (FS) and ejection fraction (EF)”. The “Viability of SmoM2 cells” value (SmoM2-Light cells) was “efficiently and selectively killed SmoM2-Light cells”, the “Gli2 localization in the primary cilium” value (Gli2 trafficking) was “significantly more Gli2 accumulated in Eggmanone-treated cilia than in controls” and the “Gli2 localization in the primary cilium” value (Gli2 trafficking; listed as eggmanone) was “more Gli2 accumulated in eggmanone-treated cilium than in controls”. The “SAG-induced nuclear accumulation” value (Gli2 trafficking) was “blunted the nuclear accumulation of the full-length Gli2” and the “SAG-induced nuclear accumulation” value (Gli2 trafficking; listed as eggmanone) was “blunted the nuclear accumulation of the full-length Gli2”.

With `CCCn1c(SCC(=O)c2cccs2)nc2sc3c(c2c1=O)CCCC3` [Formula 9e] the LipE [2, 4] was 1.06, the LipE ([2]; pEC50 - cLogP, Table 14) was 1.06 and the “PDE4D inhibition in words” value (consensus PDE4D sequence) was “tracked well with EGM1's IC50:EC50 ratio”.

For `C=C(C)Cn1c(SCC(=O)c2ccccc2)nc2sc3c(c2c1=O)CCCC3` [Formula 9g], the LipE [2, 4] was −0.01, the LipE ([2]; pEC50 - cLogP, Table 14) was −0.01 and the “PDE4D inhibition in words” value (consensus PDE4D sequence) was “tracked well with EGM1's IC50:EC50 ratio”.

`O=C(CSc1nc2sc3c(c2c(=O)n1C1CC1)CCCC3)c1cccs1` [JEH-3-039-2] gave an inhibition at 10 µM (Ptch1 transcription) of 80.4%.

With `C=CCn1c(SCC(=O)c2cccs2)nc2sc3c(c2c1=O)CCCC3` [JEH-3-039-3] the inhibition at 10 µM (Ptch1 transcription) was 38.1%.

For `C=C(C)Cn1c(SCC(=O)c2ccccc2)nc2sc3c(c2c1=O)CCCC3` [JEH-3-045-1], the inhibition at 10 µM (Ptch1 transcription) was 47.6%.
